Data taken from PubChem BioAssay AID248 (DTP/NCI, 2004).
“And” between values parts separate entries of the source, which are not always exact repeats. Identical values can stand only once. Toxic doses and inconclusive results are not listed. Cut-off read from the data, not from the text of the source: active = T/C of 150% or more; inactive = T/C below 125%.

Tested on: L1210 leukemia ip in BDF1 mice, survival T/C
Assay: NCI In Vivo Anticancer Drug Screen. Data for tumor model L1210 Leukemia (intraperitoneal) in B6D2F1 (BDF1) mice
Settings: higher = longer survival
Procedure, shortened: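 Transplantable tumor model; survival measured in treated vs vehicle control mice. Value = treated/control.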

Measured: T/C

COc1cccc2c1C(=O)c1c(O)c3c(c(O)c1C2=O)C[C@@](O)(C(=O)CO)C[C@@H]3OC1CC(N)C(O)C(C)O1 (stereo partly drawn)
inactive: endpoint: mean survival time, dose: 0.09 mg/kg/injection, schedule: Q01DX009 (ip), vehicle: saline 106 % of control | endpoint: mean survival time, dose: 0.18 mg/kg/injection, schedule: Q01DX009 (ip), vehicle: saline 107 % of control and 113 % of control | endpoint: mean survival time, dose: 0.2 mg/kg/injection, schedule: Q01DX009 (ip), vehicle: water 112 % of control | endpoint: mean survival time, dose: 0.28 mg/kg/injection, schedule: Q04DX002 (ip), vehicle: saline 110 % of control and 120 % of control | endpoint: mean survival time, dose: 0.3 mg/kg/injection, schedule: Q01DX015 (ip), vehicle: clinical formulation 116 % of control | endpoint: mean survival time, dose: 0.44 mg/kg/injection, schedule: Q01DX015 (ip), vehicle: clinical formulation 119 % of control | endpoint: mean survival time, dose: 0.5 mg/kg/injection, schedule: Q01DX003 (ip), vehicle: water 115 % of control | endpoint: mean survival time, dose: 0.5 mg/kg/injection, schedule: Q## X Z (ip), vehicle: water 113 % of control | endpoint: mean survival time, dose: 0.55 mg/kg/injection, schedule: Q04DX002 (ip), vehicle: saline 103 % of control and 108 % of control | endpoint: mean survival time, dose: 1.0 mg/kg/injection, schedule: Q01DX009 (sc), vehicle: clinical formulation 107 % of control | endpoint: mean survival time, dose: 1.0 mg/kg/injection, schedule: Q03HX024 (ip), vehicle: water 111 % of control | endpoint: mean survival time, dose: 1.0 mg/kg/injection, schedule: Q04DX004 (ip), vehicle: clinical formulation 117 % of control | endpoint: mean survival time, dose: 1.5 mg/kg/injection, schedule: Q01DX009 (sc), vehicle: clinical formulation 108 % of control | endpoint: mean survival time, dose: 2.0 mg/kg/injection, schedule: Q03HX024 (ip), vehicle: water 93 % of control | endpoint: mean survival time, dose: 2.2 mg/kg/injection, schedule: Q01DX009 (sc), vehicle: clinical formulation 113 % of control | endpoint: mean survival time, dose: 3.0 mg/kg/injection, schedule: Q01DX009 (ip), vehicle: saline 107 % of control | endpoint: mean survival time, dose: 3.3 mg/kg/injection, schedule: Q01DX009 (sc), vehicle: clinical formulation 117 % of control | endpoint: mean survival time, dose: 4.0 mg/kg/injection, schedule: Q01DX008 (ip), vehicle: saline 98 % of control | endpoint: mean survival time, dose: 4.9 mg/kg/injection, schedule: Q01DX009 (sc), vehicle: clinical formulation 110 % of control | endpoint: mean survival time, dose: 5.0 mg/kg/injection, schedule: Q01DX009 (ip), vehicle: saline 93 % of control | endpoint: mean survival time, dose: 20.0 mg/kg/injection, schedule: Q01DX001 (ip), vehicle: saline 108 % of control | endpoint: mean survival time, dose: 100.0 micrograms/kg/injection, schedule: Q03HX032 (ip), vehicle: clinical formulation 117 % of control | endpoint: mean survival time, dose: 150.0 micrograms/kg/injection, schedule: Q03HX032 (ip), vehicle: clinical formulation 120 % of control | endpoint: median survival time, dose: 0.12 mg/kg/injection, schedule: Q03HX008 (ip), vehicle: water 120 % of control | endpoint: median survival time, dose: 0.13 mg/kg/injection, schedule: Q03HX008 (ip), vehicle: water 119 % of control | endpoint: median survival time, dose: 0.23 mg/kg/injection, schedule: Q04DX003 (ip), vehicle: water 113 % of control | endpoint: median survival time, dose: 0.25 mg/kg/injection, schedule: Q01DX009 (ip), vehicle: water 115 % of control | endpoint: median survival time, dose: 0.28 mg/kg/injection, schedule: Q03HX008 (ip), vehicle: water 111 % of control | endpoint: median survival time, dose: 0.47 mg/kg/injection, schedule: Q03HX008 (ip), vehicle: water 111 % of control | endpoint: median survival time, dose: 0.5 mg/kg/injection, schedule: Q01DX001 (ip), vehicle: water 113 % of control and 116 % of control | endpoint: median survival time, dose: 0.5 mg/kg/injection, schedule: Q01DX009 (ip), vehicle: water 115 % of control and 119 % of control | endpoint: median survival time, dose: 0.5 mg/kg/injection, schedule: Q03HX024 (ip), vehicle: water 114 % of control | endpoint: median survival time, dose: 0.65 mg/kg/injection, schedule: Q01DX005 (sc), vehicle: water 110 % of control | endpoint: median survival time, dose: 0.65 mg/kg/injection, schedule: Q01DX009 (ip), vehicle: water 104 % of control | endpoint: median survival time, dose: 0.65 mg/kg/injection, schedule: Q03HX008 (sc), vehicle: water 110 % of control | endpoint: median survival time, dose: 0.75 mg/kg/injection, schedule: Q04DX003 (ip), vehicle: water 109 % of control | endpoint: median survival time, dose: 0.78 mg/kg/injection, schedule: Q03HX008 (ip), vehicle: water 105 % of control | endpoint: median survival time, dose: 1.0 mg/kg/injection, schedule: Q01DX009 (ip), vehicle: water 115 % of control | endpoint: median survival time, dose: 1.0 mg/kg/injection, schedule: Q03HX024 (ip), vehicle: water 93 % of control and 110 % of control | endpoint: median survival time, dose: 1.0 mg/kg/injection, schedule: Q04DX003 (ip), vehicle: water 119 % of control | endpoint: median survival time, dose: 1.0 mg/kg/injection, schedule: Q## X001 (ip), vehicle: saline 113 % of control | endpoint: median survival time, dose: 1.08 mg/kg/injection, schedule: Q01DX005 (sc), vehicle: water 105 % of control | endpoint: median survival time, dose: 1.08 mg/kg/injection, schedule: Q01DX009 (ip), vehicle: water 104 % of control and 113 % of control | endpoint: median survival time, dose: 1.17 mg/kg/injection, schedule: Q04DX003 (ip), vehicle: water 100 % of control | endpoint: median survival time, dose: 1.25 mg/kg/injection, schedule: Q04DX003 (ip), vehicle: water 115 % of control | endpoint: median survival time, dose: 1.5 mg/kg/injection, schedule: Q04DX003 (ip), vehicle: water 102 % of control | endpoint: median survival time, dose: 1.75 mg/kg/injection, schedule: Q04DX003 (ip), vehicle: water 100 % of control | endpoint: median survival time, dose: 1.8 mg/kg/injection, schedule: Q01DX001 (ip), vehicle: water 95 % of control and 113 % of control and 120 % of control | endpoint: median survival time, dose: 1.8 mg/kg/injection, schedule: Q01DX005 (sc), vehicle: water 110 % of control | endpoint: median survival time, dose: 1.8 mg/kg/injection, schedule: Q01DX009 (ip), vehicle: water 109 % of control and 113 % of control | endpoint: median survival time, dose: 1.8 mg/kg/injection, schedule: Q08DX002 (ip), vehicle: water 100 % of control and 118 % of control | endpoint: median survival time, dose: 2.0 mg/kg/injection, schedule: Q01DX009 (ip), vehicle: water 104 % of control | endpoint: median survival time, dose: 2.0 mg/kg/injection, schedule: Q## X001 (ip), vehicle: saline 118 % of control | endpoint: median survival time, dose: 2.6 mg/kg/injection, schedule: Q04DX003 (ip), vehicle: water 116 % of control | endpoint: median survival time, dose: 3.0 mg/kg/injection, schedule: Q01DX009 (ip), vehicle: water 109 % of control | endpoint: median survival time, dose: 3.0 mg/kg/injection, schedule: Q08DX002 (ip), vehicle: water 100 % of control and 118 % of control | endpoint: median survival time, dose: 3.0 mg/kg/injection, schedule: Q12DX002 (ip), vehicle: water 117 % of control | endpoint: median survival time, dose: 3.9 mg/kg/injection, schedule: Q01DX001 (ip), vehicle: water 105 % of control | endpoint: median survival time, dose: 5.0 mg/kg/injection, schedule: Q12DX002 (ip), vehicle: water 119 % of control | endpoint: median survival time, dose: 5.9 mg/kg/injection, schedule: Q04DX003 (ip), vehicle: water 111 % of control | endpoint: median survival time, dose: 6.0 mg/kg/injection, schedule: Q01DX001 (ip), vehicle: water 115 % of control | endpoint: median survival time, dose: 6.0 mg/kg/injection, schedule: Q04DX003 (ip), vehicle: water 103 % of control | endpoint: median survival time, dose: 8.0 mg/kg/injection, schedule: Q04DX003 (ip), vehicle: water 94 % of control and 97 % of control (2×) | endpoint: median survival time, dose: 8.3 mg/kg/injection, schedule: Q04DX003 (ip), vehicle: water 116 % of control | endpoint: median survival time, dose: 8.4 mg/kg/injection, schedule: Q08DX002 (ip), vehicle: water 104 % of control and 118 % of control | endpoint: median survival time, dose: 8.9 mg/kg/injection, schedule: Q04DX003 (ip), vehicle: water 100 % of control | endpoint: median survival time, dose: 10.0 mg/kg/injection, schedule: Q04DX003 (ip), vehicle: water 94 % of control and 100 % of control and 103 % of control | endpoint: median survival time, dose: 10.0 mg/kg/injection, schedule: Q08DX002 (ip), vehicle: water 111 % of control | endpoint: median survival time, dose: 12.0 mg/kg/injection, schedule: Q01DX001 (ip), vehicle: water 120 % of control | endpoint: median survival time, dose: 13.3 mg/kg/injection, schedule: Q01DX001 (ip), vehicle: water 105 % of control | endpoint: median survival time, dose: 14.0 mg/kg/injection, schedule: Q08DX002 (ip), vehicle: water 95 % of control and 104 % of control | endpoint: median survival time, dose: 24.0 mg/kg/injection, schedule: Q01DX001 (ip), vehicle: water 114 % of control

O=C(O)/C(Cc1cnc2ccccc2n1)=N\O
inactive: endpoint: mean survival time, dose: 100.0 mg/kg/injection, schedule: Q01DX009 (ip), vehicle: saline with Tween-80 104 % of control | endpoint: mean survival time, dose: 100.0 mg/kg/injection, schedule: Q04DX003 (ip), vehicle: saline with Tween-80 105 % of control | endpoint: mean survival time, dose: 200.0 mg/kg/injection, schedule: Q01DX009 (ip), vehicle: saline with Tween-80 104 % of control | endpoint: mean survival time, dose: 200.0 mg/kg/injection, schedule: Q04DX003 (ip), vehicle: saline with Tween-80 101 % of control | endpoint: mean survival time, dose: 400.0 mg/kg/injection, schedule: Q01DX009 (ip), vehicle: saline with Tween-80 93 % of control | endpoint: mean survival time, dose: 400.0 mg/kg/injection, schedule: Q04DX003 (ip), vehicle: saline with Tween-80 100 % of control

CC(C)NC(=O)CCSCCC(=O)NC(C)C
inactive: endpoint: mean survival time, dose: 200.0 mg/kg/injection, schedule: Q04DX002 (ip), vehicle: other 94 % of control | endpoint: mean survival time, dose: 400.0 mg/kg/injection, schedule: Q04DX002 (ip), vehicle: other 94 % of control

COc1cccc(N=Cc2ccc(OC(=O)c3ccccc3)c(OC)c2)c1
inactive: endpoint: mean survival time, dose: 100.0 mg/kg/injection, schedule: Q01DX009 (ip), vehicle: Klucel (hydroxypropylcellulose) (HPC) 91 % of control | endpoint: mean survival time, dose: 200.0 mg/kg/injection, schedule: Q01DX009 (ip), vehicle: Klucel (hydroxypropylcellulose) (HPC) 94 % of control | endpoint: mean survival time, dose: 400.0 mg/kg/injection, schedule: Q01DX009 (ip), vehicle: Klucel (hydroxypropylcellulose) (HPC) 92 % of control
